One compound from ChEMBL document CHEMBL4330132, “5-Keto-3-cyano-2,4-diaminothiophenes as selective maternal embryonic leucine zipper kinase inhibitors” (Bioorg Med Chem Lett, 2019) can be followed below.

The target in assay [1] is Myosin light chain kinase family member 4 (Homo sapiens) (UniProt Q86YV6). In words: Binding affinity to wild-type human partial length MYLK4 (V79 to S380 residues) expressed in bacterial expression system assessed as residual binding level at 1 uM by Kinomescan method relative to control.
Sequence of Myosin light chain kinase family member 4 (Homo sapiens) (Q86YV6 whole entry, the tested form may be a part): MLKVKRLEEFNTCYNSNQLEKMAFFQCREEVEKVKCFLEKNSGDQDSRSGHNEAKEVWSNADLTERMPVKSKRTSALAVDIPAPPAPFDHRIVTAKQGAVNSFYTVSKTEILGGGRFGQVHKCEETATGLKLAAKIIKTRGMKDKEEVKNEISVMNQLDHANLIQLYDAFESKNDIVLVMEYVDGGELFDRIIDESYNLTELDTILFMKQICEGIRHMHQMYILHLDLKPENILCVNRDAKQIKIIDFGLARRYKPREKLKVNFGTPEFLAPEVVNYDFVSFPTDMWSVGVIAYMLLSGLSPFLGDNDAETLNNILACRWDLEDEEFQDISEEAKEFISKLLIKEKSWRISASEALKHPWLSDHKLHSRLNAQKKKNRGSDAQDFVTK
The test system of assay [2] is Tyrosine-protein kinase ABL1 (Homo sapiens), P00519 [Q252H]. In words: Binding affinity to human non-phosphorylated ABL1 Q252H mutant (S229 to K512 residues) expressed in mammalian expression system assessed as residual binding level at 1 uM by Kinomescan method relative to control.
For assay [3], the target named is Cyclin-dependent kinase 17 (Homo sapiens) (UniProt Q00537). In words: Binding affinity to wild-type human full length PCTK2 (M1 to F523 residues) expressed in bacterial expression system assessed as residual binding level at 1 uM by Kinomescan method relative to control.
In assay [4] the test system is Mast/stem cell growth factor receptor Kit (Homo sapiens), P10721 [D816H]. Briefly: Binding affinity to human partial length KIT D816H mutant (I571 to D952 residues) expressed in mammalian expression system assessed as residual binding level at 1 uM by Kinomescan method relative to control.
Sequence of Mast/stem cell growth factor receptor Kit (Homo sapiens), P10721 [D816H] (P10721 whole entry D816H, the tested form may be a part): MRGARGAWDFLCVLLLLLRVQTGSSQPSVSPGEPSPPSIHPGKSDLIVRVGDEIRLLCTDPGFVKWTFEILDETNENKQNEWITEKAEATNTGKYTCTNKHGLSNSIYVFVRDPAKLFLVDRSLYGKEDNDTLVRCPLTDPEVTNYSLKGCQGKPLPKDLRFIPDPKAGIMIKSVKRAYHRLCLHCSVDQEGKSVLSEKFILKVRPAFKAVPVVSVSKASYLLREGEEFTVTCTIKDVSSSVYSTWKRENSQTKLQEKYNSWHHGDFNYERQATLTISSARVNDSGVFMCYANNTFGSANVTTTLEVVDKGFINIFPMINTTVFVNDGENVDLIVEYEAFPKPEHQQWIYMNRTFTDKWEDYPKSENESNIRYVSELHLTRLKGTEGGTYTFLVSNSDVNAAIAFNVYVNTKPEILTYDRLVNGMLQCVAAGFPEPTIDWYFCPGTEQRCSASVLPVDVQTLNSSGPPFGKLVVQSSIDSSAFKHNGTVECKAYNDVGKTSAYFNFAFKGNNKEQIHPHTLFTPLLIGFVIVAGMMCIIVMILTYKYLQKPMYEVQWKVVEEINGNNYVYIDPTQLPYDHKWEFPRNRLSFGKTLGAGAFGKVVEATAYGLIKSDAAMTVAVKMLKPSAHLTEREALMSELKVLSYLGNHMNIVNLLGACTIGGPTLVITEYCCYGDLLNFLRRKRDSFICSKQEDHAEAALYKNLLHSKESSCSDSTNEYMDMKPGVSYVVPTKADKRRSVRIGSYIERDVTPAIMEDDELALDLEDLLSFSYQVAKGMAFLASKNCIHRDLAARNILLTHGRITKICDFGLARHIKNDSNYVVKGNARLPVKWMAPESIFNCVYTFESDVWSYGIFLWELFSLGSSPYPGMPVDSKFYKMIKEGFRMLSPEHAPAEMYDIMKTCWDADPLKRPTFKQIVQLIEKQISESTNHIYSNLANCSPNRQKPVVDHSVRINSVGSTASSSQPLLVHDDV
The target of assay [5] is Calcium/calmodulin-dependent protein kinase kinase 2 (Homo sapiens) (UniProt Q96RR4). In words: Binding affinity to wild-type human partial length CAMKK2 (D65 to V471 residues) expressed in bacterial expression system assessed as residual binding level at 1 uM by Kinomescan method relative to control.
Assay [6] deals with Phosphatidylinositol 4,5-bisphosphate 3-kinase catalytic subunit alpha isoform (Homo sapiens), P42336 [H1047L]. Briefly: Binding affinity to human partial length PIK3CA H1047L mutant (R108 to N1068 residues) expressed in mammalian expression system assessed as residual binding level at 1 uM by Kinomescan method relative to control.
Assay [7] deals with Phosphatidylinositol 4-phosphate 5-kinase type-1 alpha (Homo sapiens) (UniProt Q99755). In words: Binding affinity to wild-type human full length PIP5K1A (M1 to H562 residues) expressed in bacterial expression system assessed as residual binding level at 1 uM by Kinomescan method relative to control.
In assay [8] the target is Cyclin-dependent kinase-like 3 (Homo sapiens) (UniProt Q8IVW4). Briefly: Binding affinity to wild-type human partial length CDKL3 (M1 to D327 residues) expressed in bacterial expression system assessed as residual binding level at 1 uM by Kinomescan method relative to control.
Sequence of Cyclin-dependent kinase-like 3 (Homo sapiens) (Q8IVW4 whole entry, looked up, the tested form may be a part): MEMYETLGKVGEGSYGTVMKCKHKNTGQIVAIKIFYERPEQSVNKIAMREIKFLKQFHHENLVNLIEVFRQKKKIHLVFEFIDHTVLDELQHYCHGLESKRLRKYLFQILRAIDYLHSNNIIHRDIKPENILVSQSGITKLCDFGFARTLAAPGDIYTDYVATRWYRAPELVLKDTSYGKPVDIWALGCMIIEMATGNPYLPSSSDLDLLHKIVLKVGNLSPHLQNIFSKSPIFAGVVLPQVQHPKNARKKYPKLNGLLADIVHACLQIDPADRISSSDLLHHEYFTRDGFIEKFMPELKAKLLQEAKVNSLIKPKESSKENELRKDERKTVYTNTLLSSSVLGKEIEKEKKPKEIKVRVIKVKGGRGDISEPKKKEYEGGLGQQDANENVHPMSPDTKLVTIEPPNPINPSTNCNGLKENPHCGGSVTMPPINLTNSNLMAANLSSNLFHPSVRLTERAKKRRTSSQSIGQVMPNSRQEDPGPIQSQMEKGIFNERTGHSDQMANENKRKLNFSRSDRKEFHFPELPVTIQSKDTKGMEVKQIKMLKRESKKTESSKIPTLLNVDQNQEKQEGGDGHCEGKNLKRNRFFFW
The target of assay [9] is Tyrosine-protein kinase Fer (Homo sapiens) (UniProt P16591). Briefly: Binding affinity to wild-type human partial length FER (S542 to T822 residues) expressed in bacterial expression system assessed as residual binding level at 1 uM by Kinomescan method relative to control.
The subject of assay [10] is Tyrosine-protein kinase ABL1 (Homo sapiens), P00519 [H396P]. Briefly: Binding affinity to human phosphorylated ABL1 H396P mutant (S229 to K512 residues) expressed in mammalian expression system assessed as residual binding level at 1 uM by Kinomescan method relative to control.
The test system of assay [11] is Mast/stem cell growth factor receptor Kit (Homo sapiens), P10721 [D816V]. In words: Binding affinity to human partial length KIT D816V mutant (I571 to D952 residues) expressed in bacterial expression system assessed as residual binding level at 1 uM by Kinomescan method relative to control.
For assay [12], the system named is Phosphatidylinositol 4,5-bisphosphate 3-kinase catalytic subunit alpha isoform (Homo sapiens), P42336 [H1047Y]. In words: Binding affinity to human partial length PIK3CA H1047Y mutant (R108 to N1068 residues) expressed in mammalian expression system assessed as residual binding level at 1 uM by Kinomescan method relative to control.
The target in assay [13] is Non-receptor tyrosine-protein kinase TNK1 (Homo sapiens) (UniProt Q13470). Briefly: Binding affinity to wild-type human full length TNK1 (M1 to P661 residues) expressed in bacterial expression system assessed as residual binding level at 1 uM by Kinomescan method relative to control.
Sequence of Non-receptor tyrosine-protein kinase TNK1 (Homo sapiens) (Q13470 whole entry, the tested form may be a part): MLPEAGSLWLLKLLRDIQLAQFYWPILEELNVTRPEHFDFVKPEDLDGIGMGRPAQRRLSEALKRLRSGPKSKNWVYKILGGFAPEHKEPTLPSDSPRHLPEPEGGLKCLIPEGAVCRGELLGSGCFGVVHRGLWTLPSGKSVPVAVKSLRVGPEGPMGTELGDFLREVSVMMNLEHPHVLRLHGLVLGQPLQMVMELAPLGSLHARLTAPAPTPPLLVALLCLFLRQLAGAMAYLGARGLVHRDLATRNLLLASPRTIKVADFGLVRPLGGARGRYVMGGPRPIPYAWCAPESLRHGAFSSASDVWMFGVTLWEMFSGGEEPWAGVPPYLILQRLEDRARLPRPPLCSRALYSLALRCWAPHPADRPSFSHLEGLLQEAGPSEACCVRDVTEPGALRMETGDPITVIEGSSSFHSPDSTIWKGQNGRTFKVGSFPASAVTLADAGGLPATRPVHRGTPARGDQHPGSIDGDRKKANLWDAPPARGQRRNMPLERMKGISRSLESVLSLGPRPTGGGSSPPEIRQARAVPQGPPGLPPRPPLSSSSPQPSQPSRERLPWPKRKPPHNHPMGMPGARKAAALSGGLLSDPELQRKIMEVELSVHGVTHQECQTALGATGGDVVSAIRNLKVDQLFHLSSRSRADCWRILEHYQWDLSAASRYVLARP
For assay [14], the target named is Dual specificity protein kinase TTK (Homo sapiens) (UniProt P33981). Briefly: Binding affinity to wild-type human partial length TTK (N505 to V798 residues) expressed in bacterial expression system assessed as residual binding level at 1 uM by Kinomescan method relative to control.
In assay [15] the test system is Mast/stem cell growth factor receptor Kit (Homo sapiens), P10721 [A829P]. In words: Binding affinity to human partial length KIT A829P mutant (I571 to D952 residues) expressed in mammalian expression system assessed as residual binding level at 1 uM by Kinomescan method relative to control.
Sequence of Mast/stem cell growth factor receptor Kit (Homo sapiens), P10721 [A829P] (P10721 whole entry A829P, the tested form may be a part): as the sequence (P10721 whole entry D816H, the tested form may be a part) above, with H816D, A829P counted along it
The target of assay [16] is Serine/threonine-protein kinase PAK 2 (Homo sapiens) (UniProt Q13177). Briefly: Binding affinity to wild-type human partial length PAK2 (P151 to R525 residues) expressed in bacterial expression system assessed as residual binding level at 1 uM by Kinomescan method relative to control.
The target in assay [17] is Serine/threonine-protein kinase NLK (Homo sapiens) (UniProt Q9UBE8). In words: Binding affinity to wild-type human full length NLK (M13 to E527 residues) expressed in bacterial expression system assessed as residual binding level at 1 uM by Kinomescan method relative to control.
For assay [18], the target named is Dual specificity tyrosine-phosphorylation-regulated kinase 1B (Homo sapiens) (UniProt Q9Y463). Briefly: Binding affinity to wild-type human full length DYRK1B (M1 to S629 residues) expressed in bacterial expression system assessed as residual binding level at 1 uM by Kinomescan method relative to control.
For assay [19], the target named is Focal adhesion kinase 1 (Homo sapiens) (UniProt Q05397). In words: Binding affinity to wild-type human partial length FAK (D402 to R696 residues) expressed in bacterial expression system assessed as residual binding level at 1 uM by Kinomescan method relative to control.
Sequence of Focal adhesion kinase 1 (Homo sapiens) (Q05397 2-1052 limits assumed): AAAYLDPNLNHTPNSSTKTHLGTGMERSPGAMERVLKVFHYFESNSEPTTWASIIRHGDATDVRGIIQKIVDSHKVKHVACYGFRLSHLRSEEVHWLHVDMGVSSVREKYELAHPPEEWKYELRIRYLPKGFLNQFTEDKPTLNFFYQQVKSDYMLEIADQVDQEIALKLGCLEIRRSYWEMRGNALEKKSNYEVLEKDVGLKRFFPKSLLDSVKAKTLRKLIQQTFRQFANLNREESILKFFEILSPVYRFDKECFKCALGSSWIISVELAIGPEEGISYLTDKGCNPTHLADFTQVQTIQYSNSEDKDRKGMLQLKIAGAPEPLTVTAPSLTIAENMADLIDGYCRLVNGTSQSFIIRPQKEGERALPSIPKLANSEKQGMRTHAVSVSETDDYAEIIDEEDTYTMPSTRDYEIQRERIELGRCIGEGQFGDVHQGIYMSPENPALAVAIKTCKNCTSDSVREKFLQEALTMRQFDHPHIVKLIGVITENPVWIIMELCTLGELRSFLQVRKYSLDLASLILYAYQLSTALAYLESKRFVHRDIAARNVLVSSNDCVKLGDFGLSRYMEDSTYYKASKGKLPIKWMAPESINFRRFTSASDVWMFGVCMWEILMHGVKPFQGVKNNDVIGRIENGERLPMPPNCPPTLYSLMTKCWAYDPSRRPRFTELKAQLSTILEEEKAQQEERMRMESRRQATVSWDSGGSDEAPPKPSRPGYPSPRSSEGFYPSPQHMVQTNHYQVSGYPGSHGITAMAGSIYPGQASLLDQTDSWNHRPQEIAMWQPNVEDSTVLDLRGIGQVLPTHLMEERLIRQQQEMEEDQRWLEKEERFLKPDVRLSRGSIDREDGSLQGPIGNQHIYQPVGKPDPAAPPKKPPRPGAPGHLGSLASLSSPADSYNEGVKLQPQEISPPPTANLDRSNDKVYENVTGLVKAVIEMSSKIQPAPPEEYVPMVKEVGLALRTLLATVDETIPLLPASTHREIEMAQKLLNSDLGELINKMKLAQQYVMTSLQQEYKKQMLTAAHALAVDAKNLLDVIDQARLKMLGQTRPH
Assay [20] has as its target Dual serine/threonine and tyrosine protein kinase (Homo sapiens) (UniProt Q6XUX3). Briefly: Binding affinity to wild-type human full length RIPK5 (M1 to T929 residues) expressed in mammalian expression system assessed as residual binding level at 1 uM by Kinomescan method relative to control.
Assay [21] has as its target Serine/threonine-protein kinase MRCK beta (Homo sapiens) (UniProt Q9Y5S2). Briefly: Binding affinity to wild-type human partial length MRCKB (L56 to S417 residues) expressed in bacterial expression system assessed as residual binding level at 1 uM by Kinomescan method relative to control.
The target in assay [22] is AP2-associated protein kinase 1 (Homo sapiens) (UniProt Q2M2I8). In words: Binding affinity to human wild-type AAK1 (G25 to L333 residues) expressed in bacterial expression system assessed as residual binding level at 1 uM by Kinomescan method relative to control.
In assay [23] the target is Platelet-derived growth factor receptor beta (Homo sapiens) (UniProt P09619). In words: Binding affinity to wild-type human partial length PDGFRB (V582 to Y1009 residues) expressed in bacterial expression system assessed as residual binding level at 1 uM by Kinomescan method relative to control.
The target of assay [24] is Serine/threonine-protein kinase pim-2 (Homo sapiens) (UniProt Q9P1W9). Briefly: Binding affinity to wild-type human partial length PIM2 (M1 to E291 residues) expressed in bacterial expression system assessed as residual binding level at 1 uM by Kinomescan method relative to control.
Sequence of Serine/threonine-protein kinase pim-2 (Homo sapiens) (Q9P1W9 whole entry, looked up, the tested form may be a part): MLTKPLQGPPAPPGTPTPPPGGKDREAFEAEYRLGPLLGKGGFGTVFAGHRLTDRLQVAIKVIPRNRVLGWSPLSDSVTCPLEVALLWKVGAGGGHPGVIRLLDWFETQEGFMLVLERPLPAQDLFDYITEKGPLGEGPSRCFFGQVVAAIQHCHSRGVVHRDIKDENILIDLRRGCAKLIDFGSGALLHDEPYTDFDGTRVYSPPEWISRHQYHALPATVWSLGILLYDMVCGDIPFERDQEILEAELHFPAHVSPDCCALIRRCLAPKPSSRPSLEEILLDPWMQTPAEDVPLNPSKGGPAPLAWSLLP

On to `CC(C)Nc1sc(C(=O)c2ccc(Cl)s2)c(N)c1C#N`, for which the Activity in [1] is 96%; in assay [2] it was 100%; in assay [3] it was 87%; in assay [4], 77%; in assay [5], 76%; in assay [6] it was 99%. Besides, the Activity in [7] was determined as 81%; in assay [8], 47%; in assay [9] it was 81%; in assay [10], 100%; in assay [11], 55%; in assay [12], 100%. Besides, the Activity in [13] was 70%; in assay [14], 49%; in assay [15] it was 66%; in assay [16], 75%; in assay [17] it was 79%; in assay [18] it was 64%. In addition, the Activity stood at 74% in [19]; 85% in [20]; 90% in assay [21]; 16% in [22]; 54% in [23]; 100% in assay [24].
